How the values were obtained:
db/db mice = experiment: Investigation with db/db mice (blood glucose and lipids); format: in vivo, mouse; conditions: for Glucose Diff. D o − D 12 / HDL-cholesterol Diff. D o − D 12 / Total cholesterol Diff. D o − D 12 / Triglycerides Diff. D o − D 12: change day 0 to day 12; for Glucose D o / HDL-cholesterol D o / Total cholesterol D o / Triglycerides D o: day 0; for HDL-cholesterol D 12 / Total cholesterol D 12 / Triglycerides D 12 / Glucose D 12: day 12; for Glucose D-4 / HDL-cholesterol D-4 / Total cholesterol D-4 / Triglycerides D-4: day −4
Protocol: The following compounds are investigated and compared to placebo (vehicle control).
The mentioned 3 compounds are tested in db/db mice during a time when diabetes is in a rapid developing stage. […] Each dosage group and the vehicle group comprise 7 mice. The suspensions used are prepared with peroxide free arachis oil as vehicle. Blood samples are collected by retro-orbital bleeding at days −4, 0 and 12. The blood levels of glucose, triglycerides, total cholesterol, and HDL-cholesterol are determined.
For evaluation of efficacy, the difference between the values of glucose, triglycerides, total cholesterol and HDL-cholesterol changing from day 0 to day 12 is determined and expressed in %. […] Overall evaluation consists in determining the efficacy of the compounds by calculating the whole extent of the effect expressed in %. […] This value is considered as a valuable indicator for the efficacy of the investigated compounds administered in a tolerated dose.

RXRα [1] = target: T1, RXRα (Homo sapiens, UniProt P19793); experiment: Retinoid activation assay, RXRα (Schneider SL-3 cells, luciferase reporter); format: cell-based; conditions: read-out: Activation EC50 RXR α
T1 sequence (P19793 1-462): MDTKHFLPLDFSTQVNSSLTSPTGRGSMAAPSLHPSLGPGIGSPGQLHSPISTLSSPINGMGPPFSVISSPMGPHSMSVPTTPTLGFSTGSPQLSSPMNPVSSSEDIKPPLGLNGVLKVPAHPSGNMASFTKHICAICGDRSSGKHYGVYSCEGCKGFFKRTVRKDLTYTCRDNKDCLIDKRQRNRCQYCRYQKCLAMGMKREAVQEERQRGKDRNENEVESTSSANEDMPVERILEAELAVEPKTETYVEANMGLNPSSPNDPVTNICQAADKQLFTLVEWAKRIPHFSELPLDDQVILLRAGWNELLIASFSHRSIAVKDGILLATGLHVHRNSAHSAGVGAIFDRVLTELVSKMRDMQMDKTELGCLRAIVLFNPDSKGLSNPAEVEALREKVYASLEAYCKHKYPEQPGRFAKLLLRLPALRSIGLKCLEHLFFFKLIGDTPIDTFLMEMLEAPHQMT
Protocol: (§1) Full length RXR cDNA is used for transfection. As reporter system, the luciferase gene is used in a construct with three copies of a RXR response element from rat CRBP gene, (formerly RARE from betaRAR gene), fused to alcoholdehydrogenase gene promoter in the plasmid pGL2-basic. Schneider SL-3 cells from Drosophila are transiently transfected 3-4 h before the experiment by the Ca-phosphate-DNA coprecipitation method. […] At the end of the incubation, the cell supernatants are assayed for luciferase activity. Results are given as EC50 (nM), the concentration leading to half-maximal activation.

RXRα Homodimer = target: T2, RXRα Homodimer (Homo sapiens, UniProt P19793); experiment: RXRα homodimer activation (transactivation) assay; format: cell-based
T2 construct: expressed in transfected cells; host or cells: mammalian cells (BHK21, CV1, etc)
T2 sequence (P19793 1-462): T1 sequence (P19793 1-462)
Text: (§2) Nuclear hormone receptor (NHR) ligand dependent transcriptional transactivation assay.
This secondary in vitro functional assay to characterize hits from the primary ligand binding screens is a GAL4-LBD transactivation assay. The Gal4-LBD protein consists of an in frame fusion of the transcription factor galactose 4 DNA binding domain from S.cerevisiae with the ligand binding domain (LBD) of a particular NHR. Briefly, a plasmid construct expressing the recombinant chimeric receptor is co-transfected into mammalian cells (BHK21, CV1, etc) with a luciferase reporter plasmid containing several copies in tandem of the GAL4 binding sites (promoter recognition elements) upstream from the minimal promoter driving the luciferase gene. The transfected cells are treated with compounds for 12-24 hours, lysates are produced and assayed for luciferase activity and normalized to internal standards such as GH, growth hormone or SEAP, secreted alkaline phosphatase. Ligand binding stabilizes the LBD conformation that recruits endogenous co-factors that mediate eventually the increased transcriptional activity of the luciferase reporter gene. By comparing the activation profile of a reference ligand or a natural ligand, the EC50 values for agonistic activity of a particular ligand can be measured. The extent of activation that can be measured is indicative of a partial, respectively full agonistic activity of a ligand. […]

PPARγ/RXRα Heterodimer = target: T3, PPARγ/RXRα Heterodimer (Homo sapiens, UniProt P19793); experiment: PPARγ/RXRα heterodimer activation (transactivation) assay; format: cell-based
T3 construct: co-transfected with plasmids expressing the full length RXR heteropartner receptor; expressed in transfected cells
T3 sequence (P19793 1-462): T1 sequence (P19793 1-462)
T3 sequence (P37231 1-505 partner): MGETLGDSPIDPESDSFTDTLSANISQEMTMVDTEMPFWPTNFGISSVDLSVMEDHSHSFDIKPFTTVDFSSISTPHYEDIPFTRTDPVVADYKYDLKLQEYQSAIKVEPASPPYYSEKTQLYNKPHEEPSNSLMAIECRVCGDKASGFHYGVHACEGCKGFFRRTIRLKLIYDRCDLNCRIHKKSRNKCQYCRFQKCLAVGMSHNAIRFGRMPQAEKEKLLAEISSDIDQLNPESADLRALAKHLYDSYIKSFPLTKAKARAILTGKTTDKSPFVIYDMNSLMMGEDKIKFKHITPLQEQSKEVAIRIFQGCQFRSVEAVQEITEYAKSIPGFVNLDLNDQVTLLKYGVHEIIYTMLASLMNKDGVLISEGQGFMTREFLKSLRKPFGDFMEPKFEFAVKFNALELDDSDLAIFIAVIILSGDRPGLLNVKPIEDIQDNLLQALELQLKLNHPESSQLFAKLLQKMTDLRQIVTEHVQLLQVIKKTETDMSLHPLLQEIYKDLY
Text: as §2
Heterodimer reporter assays are potentially more important selection criteria for synthetic agonistic NHR ligands as they embody a more natural situation. Basically plasmids expressing the recombinant full length NHR are co-transfected with plasmids expressing the full length RXR heteropartner receptor and a reporter plasmid containing several copies of the natural responsive elements for the respective NHR driving the luciferase reporter gene.

RXRα [2] = target: T1, RXRα; experiment: Retinoid binding assay, RXRα; set-up: made in house; host or cells: E. coli; conditions: [3H] 9-cis retinoic acid 20 nM; read-out: Binding Affinity IC50 RXR α
Text: (§3) The DEF domains of RAR's and the full length RXR's, expressed in E.coli, are used to measure competitive retinoid binding. […] 9-cis retinoic acid (for RXR's), respectively. […] Separation of bound from free radioactivity is achieved by charcoal/dextran (RAR's) or by desalting columns (RXR's). […] Retinoid Activation Assays

RXRγ [3] = target: T4, RXRγ (Homo sapiens, UniProt P48443); experiment: Retinoid binding assay, RXRγ; set-up: made in house; host or cells: E. coli; conditions: [3H] 9-cis retinoic acid 20 nM; read-out: Binding Affinity IC50 RXR γ
T4 sequence (P48443 1-463): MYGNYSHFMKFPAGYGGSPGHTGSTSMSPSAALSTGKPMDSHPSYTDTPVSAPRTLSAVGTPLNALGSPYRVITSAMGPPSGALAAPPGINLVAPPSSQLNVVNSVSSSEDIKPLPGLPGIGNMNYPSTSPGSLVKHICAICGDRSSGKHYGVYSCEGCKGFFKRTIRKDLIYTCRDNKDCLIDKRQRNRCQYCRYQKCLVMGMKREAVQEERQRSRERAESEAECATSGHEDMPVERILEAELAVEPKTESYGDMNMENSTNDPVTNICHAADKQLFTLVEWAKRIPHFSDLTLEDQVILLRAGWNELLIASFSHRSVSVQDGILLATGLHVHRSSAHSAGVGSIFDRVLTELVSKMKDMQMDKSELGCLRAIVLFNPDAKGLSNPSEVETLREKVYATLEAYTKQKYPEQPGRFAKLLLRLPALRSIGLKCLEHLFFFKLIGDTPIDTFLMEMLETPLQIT
Text: as §3

RXRγ [4] = target: T4, RXRγ; experiment: Retinoid activation assay, RXRγ (Schneider SL-3 cells, luciferase reporter); format: cell-based; conditions: read-out: Activation EC50 RXR γ
Protocol: as §1

[5] = 30 mg/kg/day group versus vehicle group

C=C(c1ccc(C(=O)O)cc1)c1cc2c(cc1C)C(C)(C)CCC2(C)C [Compound 2, 4-[1-(5,6,7,8-tetrahydro-3,5,5,8,8-pentamethyl-2-naphthalenyl)ethenyl]benzoic acid, reference compound]
Glucose Diff. D o − D 12 (db/db mice; 0.3 mg/kg/day i.p.): +54.0%
HDL-cholesterol Diff. D o − D 12 (db/db mice; 0.3 mg/kg/day i.p.): −11.8%
Total cholesterol Diff. D o − D 12 (db/db mice; 0.3 mg/kg/day i.p.): −12.3%
Triglycerides Diff. D o − D 12 (db/db mice; 0.3 mg/kg/day i.p.): −4.0%
Glucose D o (db/db mice; 0.3 mg/kg/day i.p.): 189 mg/dL
HDL-cholesterol D o (db/db mice; 0.3 mg/kg/day i.p.): 2.71 mmol/L
Total cholesterol D o (db/db mice; 0.3 mg/kg/day i.p.): 3.99 mmol/L
Triglycerides D o (db/db mice; 0.3 mg/kg/day i.p.): 1.98 mmol/L
HDL-cholesterol D 12 (db/db mice; 0.3 mg/kg/day i.p.): 2.39 mmol/L
Total cholesterol D 12 (db/db mice; 0.3 mg/kg/day i.p.): 3.50 mmol/L
Triglycerides D 12 (db/db mice; 0.3 mg/kg/day i.p.): 1.90 mmol/L
Glucose D-4 (db/db mice; 0.3 mg/kg/day i.p.): 144 mg/dL
HDL-cholesterol D-4 (db/db mice; 0.3 mg/kg/day i.p.): 2.48 mmol/L
Total cholesterol D-4 (db/db mice; 0.3 mg/kg/day i.p.): 3.96 mmol/L
Triglycerides D-4 (db/db mice; 0.3 mg/kg/day i.p.): 1.65 mmol/L
Glucose levels (in words) (db/db mice; 3 mg/kg/day): no significant change
HDL-cholesterol levels (in words) (db/db mice; 3 mg/kg/day): not influenced
Triglyceride levels (in words) (db/db mice; 3 mg/kg/day): hardly influenced
Glucose Diff. D o − D 12 (db/db mice; 3.0 mg/kg/day i.p.): +30.4%
HDL-cholesterol Diff. D o − D 12 (db/db mice; 3.0 mg/kg/day i.p.): −8.3%
Total cholesterol Diff. D o − D 12 (db/db mice; 3.0 mg/kg/day i.p.): −25.4%
Triglycerides Diff. D o − D 12 (db/db mice; 3.0 mg/kg/day i.p.): −24.8%
Glucose D o (db/db mice; 3.0 mg/kg/day i.p.): 175 mg/dL
HDL-cholesterol D o (db/db mice; 3.0 mg/kg/day i.p.): 2.77 mmol/L
Total cholesterol D o (db/db mice; 3.0 mg/kg/day i.p.): 4.65 mmol/L
Triglycerides D o (db/db mice; 3.0 mg/kg/day i.p.): 2.01 mmol/L
Glucose D 12 (db/db mice; 3.0 mg/kg/day i.p.): 229 mg/dL
HDL-cholesterol D 12 (db/db mice; 3.0 mg/kg/day i.p.): 2.54 mmol/L
Total cholesterol D 12 (db/db mice; 3.0 mg/kg/day i.p.): 3.47 mmol/L
Triglycerides D 12 (db/db mice; 3.0 mg/kg/day i.p.): 1.51 mmol/L
Glucose D-4 (db/db mice; 3.0 mg/kg/day i.p.): 169 mg/dL
HDL-cholesterol D-4 (db/db mice; 3.0 mg/kg/day i.p.): 2.66 mmol/L
Total cholesterol D-4 (db/db mice; 3.0 mg/kg/day i.p.): 4.48 mmol/L
Triglycerides D-4 (db/db mice; 3.0 mg/kg/day i.p.): 1.97 mmol/L
Glucose levels (in words) (db/db mice; 30 mg/kg/day): only hardly influenced
HDL-cholesterol levels (in words) (db/db mice; 30 mg/kg/day): decreased
Total cholesterol levels (in words) (db/db mice; 30 mg/kg/day): slightly lower
Triglyceride levels (in words) (db/db mice; 30 mg/kg/day): even raises triglyceride levels
Overall extent of the effect on blood levels of Glucose (db/db mice; [5]): +5.6%
Overall extent of the effect on blood levels of HDL-cholesterol (db/db mice; [5]): −17.8%
Overall extent of the effect on blood levels of Total cholesterol (db/db mice; [5]): −13.0%
Overall extent of the effect on blood levels of Triglycerides (db/db mice; [5]): +18.3%
Glucose Diff. D o − D 12 (db/db mice; 30 mg/kg/day i.p.): +54.8%
HDL-cholesterol Diff. D o − D 12 (db/db mice; 30 mg/kg/day i.p.): −21.6%
Total cholesterol Diff. D o − D 12 (db/db mice; 30 mg/kg/day i.p.): −21.8%
Triglycerides Diff. D o − D 12 (db/db mice; 30 mg/kg/day i.p.): +40.4%
Glucose D o (db/db mice; 30 mg/kg/day i.p.): 155 mg/dL
HDL-cholesterol D o (db/db mice; 30 mg/kg/day i.p.): 3.10 mmol/L
Total cholesterol D o (db/db mice; 30 mg/kg/day i.p.): 4.31 mmol/L
Triglycerides D o (db/db mice; 30 mg/kg/day i.p.): 1.61 mmol/L
Glucose D 12 (db/db mice; 30 mg/kg/day i.p.): 240 mg/dL
HDL-cholesterol D 12 (db/db mice; 30 mg/kg/day i.p.): 2.43 mmol/L
Total cholesterol D 12 (db/db mice; 30 mg/kg/day i.p.): 3.37 mmol/L
Triglycerides D 12 (db/db mice; 30 mg/kg/day i.p.): 2.26 mmol/L
Glucose D-4 (db/db mice; 30 mg/kg/day i.p.): 128 mg/dL
HDL-cholesterol D-4 (db/db mice; 30 mg/kg/day i.p.): 2.74 mmol/L
Total cholesterol D-4 (db/db mice; 30 mg/kg/day i.p.): 4.24 mmol/L
Triglycerides D-4 (db/db mice; 30 mg/kg/day i.p.): 1.75 mmol/L

CCCCCCCOc1c(\C(C)=C/C=C/C(C)=C/C(=O)O)cc(C(C)C)cc1C(C)C [Compound 19, (2E,4E,6Z)-7-(2-Heptyloxy-3,5-diisopropyl-phenyl)-3-methyl-octa-2,4,6-trienoic acid]
EC50 (RXRα [1]): ≥ 10000 nM
EC50 (RXRα Homodimer): > 10000 nM
EC50 (PPARγ/RXRα Heterodimer): > 10000 nM
IC50 (RXRα [2]): 9 nM
IC50 (RXRγ [3]): 19 nM

CCCOc1c([C@@H]2C[C@@H]2/C=C/C(C)=C/C(=O)O)cc(C(C)(C)C)cc1C(C)(C)C (racemic) [Compound 20, (2E,4E)-5-[2-(3,5-Di-tert-butyl-2-propoxy-phenyl)-cyclopropyl]-3-methyl-penta-2,4-dienoic acid]
EC50 (RXRα [1]): ≥ 10000 nM
EC50 (RXRγ [4]): ≥ 10000 nM
EC50 (RXRα Homodimer): > 10000 nM
EC50 (PPARγ/RXRα Heterodimer): > 10000 nM
IC50 (RXRα [2]): 52 nM
IC50 (RXRγ [3]): 71 nM
